Key:
[1] = tested on: HIV infected persons; conditions: cited from earlier work
[2] = tested on: HIV infected persons; experiment: Clinical trial of niacin (nicotinamide) in HIV infected persons: plasma amino acids by HPLC, tolerability; type: in vivo, human
Method: Four HIV infected persons participated in a trial of niacin in the form of nicotinamide. The participants were at various stages of their HIV infection as judged by their CD4 counts which ranged from 0 to 620 [see table 1]. […] Two of the participants had known co-infections infections typical of HIV infected persons. Each participant took 3 grams of nicotinamide per day for 2 months. […] Each participant's plasma tryptophan was measured prior to treatment and at the end of treatment [see table 3]. […] All amino acid concentrations were measured by High Performance Liquid Chromotography [HPLC].

## Cc1cn([C@H]2C[C@H](N=[N+]=[N-])[C@@H](CO)O2)c(=O)[nH]c1=O [Zidovudine, zidovudine]
[1]; HIV infected persons
  effect on plasma tryptophan in HIV infected persons: replete plasma tryptophan
[1]; in vivo
  side effects: headache, nausea, and bone marrow suppression

## O=C(O)c1cccnc1 [Niacin]
[2]; four patients across the range of baseline CD4 count, antiviral medication and co-infections
  tryptophan status (plasma tryptophan), in words: improve tryptophan status in all four patients

## NC(=O)c1cccnc1 [nicotinamide]
[2]; 3 grams of nicotinamide per day for 2 months, four HIV infected persons
  adverse side effects of treatment: not associated with any adverse side effects
[2]; 3 grams of nicotinamide per day orally for 2 months, four HIV infected persons, before vs end of treatment, p=0.0112 (paired t-test)
  average increase of plasma tryptophan of all participants: 43.9%

— patent US7012086B1, “Treatment of retrovirus induced derangements with niacin compounds” (The Foundation For Innovative Therapies, Inc., priority 2000, dated 2006)
